From patent publication US5055469A, “Quaternary pyridinium salts useful for ulcer treatment” (Hamari Chemicals, Ltd., priority 1988, dated 1991)

Tests used:
Slc:SD rats = test: Water-immersion stress ulceration method (antiulcer activity); format: in vivo, rat (male Slc:SD); details: 30 minutes before stress loading; for U.I. (ulcer index) Mean ± S.E.: non-treated control 13.4 ± 2.71
Method: After stress loading for 7 hours, the rats were killed through exsanguination, and the stomachs were removed, perfused in the inside with 10 ml of 2% formalin and then immersed in the same solution for 10 minutes for fixation. The stomachs were incised along the greater curvature, and the ulcers thus induced were measured for length under the stereoscopic microscope (magnification×10), whereby the total sum of the lengths was taken as an ulcer index (U.I., in mm). The test substance was given orally to rats in the form of a 4% gum arabic suspension 30 minutes before stress loading.

Acute toxicity = test: Acute toxicity; set-up: species or system mouse (male ddY); details: mouse, in vivo; mice, oral, single dose, observed for 7 days
Source text: A group of five male ddY mice (4-weeks aged) was used for testing.
The compound of Example 4 was suspended in 4% gum arabic solution to prepare a test pharmaceutical, which was given orally to each test animal once.

[1] = 30 mg/kg orally, test substance marked *p < 0.05

**Q.** With `CN/C(=N/CCSCc1nc[nH]c1C)NC#N` [Cimetidine, reference compound] as the compound, how does the “U.I. (ulcer index) Mean ± S.E.” value (Slc:SD rats; 30 mg/kg orally) read?
**A.** 5.2 ± 3.40 mm

**Q.** What about the Inhibition rate (Slc:SD rats; [1]) of the same compound?
**A.** 61.4%

**Q.** With `Cc1ccc(Nc2ccccc2NC(=O)C[n+]2ccccc2)cc1.[Cl-]` [Example 4, 1-[2-[[2-[(4-methylphenyl)amino]phenyl]amino]-2-oxoethyl]pyridinium chloride] as the compound, how does the Inhibition rate (Slc:SD rats; 10 mg/kg orally) read?
**A.** 19.0%

**Q.** What about the “U.I. (ulcer index) Mean ± S.E.” value (Slc:SD rats; 10 mg/kg orally) of the same compound?
**A.** 10.8 ± 3.15 mm

**Q.** And the “U.I. (ulcer index) Mean ± S.E.” value (Slc:SD rats; 30 mg/kg orally)?
**A.** 3.3 ± 1.82 mm

**Q.** What about the Inhibition rate (Slc:SD rats; [1]) of the same compound?
**A.** 75.1%

**Q.** What about the Inhibition rate (Slc:SD rats; 100 mg/kg orally, marked **p < 0.01) of the same compound?
**A.** 90.0%

**Q.** And the “U.I. (ulcer index) Mean ± S.E.” value (Slc:SD rats; 100 mg/kg orally)?
**A.** 1.3 ± 0.88 mm

**Q.** And the LD50 at 168 h (Acute toxicity)?
**A.** ≥ 2000 mg/kg
